The values that follow are results of earlier work, collected in patent publication US8324158B2, “Methods for inhibiting CLC-2 channel with GATX2” (Georgia Tech Research Corporation, priority 2006, dated 2012).

For orientation: Kd means the concentration at which binding is half-saturated.

This series deals with ClC-1 (Homo sapiens, UniProt P35523).
ClC-1, sequence (P35523 whole entry, species assumed): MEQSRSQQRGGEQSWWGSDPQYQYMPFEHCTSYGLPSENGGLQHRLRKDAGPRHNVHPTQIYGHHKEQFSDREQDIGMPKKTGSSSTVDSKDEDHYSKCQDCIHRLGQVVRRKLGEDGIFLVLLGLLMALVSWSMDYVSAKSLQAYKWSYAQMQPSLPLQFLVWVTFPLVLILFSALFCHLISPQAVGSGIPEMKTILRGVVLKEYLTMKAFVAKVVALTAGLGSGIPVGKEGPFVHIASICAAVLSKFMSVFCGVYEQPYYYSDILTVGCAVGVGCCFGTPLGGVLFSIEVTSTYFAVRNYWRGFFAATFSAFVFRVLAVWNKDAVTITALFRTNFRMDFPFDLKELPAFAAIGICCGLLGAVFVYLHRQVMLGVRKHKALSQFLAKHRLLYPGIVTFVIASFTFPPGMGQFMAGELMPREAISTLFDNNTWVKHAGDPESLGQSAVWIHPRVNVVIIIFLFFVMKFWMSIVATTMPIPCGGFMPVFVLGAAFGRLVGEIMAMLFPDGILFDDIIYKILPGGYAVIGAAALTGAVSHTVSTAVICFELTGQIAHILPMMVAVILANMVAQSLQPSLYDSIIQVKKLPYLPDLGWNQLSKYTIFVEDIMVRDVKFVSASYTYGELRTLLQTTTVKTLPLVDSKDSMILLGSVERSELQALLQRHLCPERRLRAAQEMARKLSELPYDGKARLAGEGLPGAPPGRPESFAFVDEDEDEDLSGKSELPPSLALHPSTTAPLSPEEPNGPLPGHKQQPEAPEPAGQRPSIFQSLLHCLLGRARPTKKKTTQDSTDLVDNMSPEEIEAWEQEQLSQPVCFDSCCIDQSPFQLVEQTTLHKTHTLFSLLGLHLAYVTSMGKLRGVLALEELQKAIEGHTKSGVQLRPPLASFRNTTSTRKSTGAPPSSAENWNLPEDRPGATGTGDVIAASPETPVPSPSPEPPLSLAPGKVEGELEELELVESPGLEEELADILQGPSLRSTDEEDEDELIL

Regarding `CC(Oc1ccc(Cl)cc1)C(=O)O` (stereo not shown) [CPP], the Kd is 15 µM.
